In ChEMBL document CHEMBL1201862, “PubChem BioAssay data set” (2004):
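Protocol summary: plate cells (96-well), add compound at 5 concentrations, incubate 48 h, interpolate endpoints linearly. At the GI50, growth is halved.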 Active and inactive are the calls of the source. Cut-off read from the data, not from the text of the source: active = GI50 up to about 1.1 µM and inactive = higher.

Experiments:
Test in all cases: NCI anticancer screen, dose series, 48 h
SK-MEL-2 = tested on: SK-MEL-2
IGROV-1 = tested on: IGROV-1
MOLT-4 = tested on: MOLT-4
CCRF-CEM = tested on: CCRF-CEM
BT-549 = tested on: BT-549
ACHN = tested on: ACHN
786-0 = tested on: 786-0
NCI-H522 = tested on: NCI-H522
MDA-MB-435 = tested on: MDA-MB-435
HOP-62 = tested on: HOP-62
SF-268 = tested on: SF-268
TK-10 = tested on: TK-10
MCF7 = tested on: MCF7
SK-OV-3 = tested on: SK-OV-3
K562 = tested on: K562
NCI-H226 = tested on: NCI-H226
SNB-75 = tested on: SNB-75
OVCAR-5 = tested on: OVCAR-5
SK-MEL-28 = tested on: SK-MEL-28

| Compound | GI50 (SK-MEL-2) | GI50 (IGROV-1) | GI50 (MOLT-4) | GI50 (CCRF-CEM) | GI50 (BT-549) | GI50 (ACHN) | GI50 (786-0) | GI50 (NCI-H522) | GI50 (MDA-MB-435) | GI50 (HOP-62) | GI50 (SF-268) | GI50 (TK-10) | GI50 (MCF7) | GI50 (SK-OV-3) | GI50 (K562) | GI50 (NCI-H226) | GI50 (SNB-75) | GI50 (OVCAR-5) | GI50 (SK-MEL-28) |
| --- | --- | --- | --- | --- | --- | --- | --- | --- | --- | --- | --- | --- | --- | --- | --- | --- | --- | --- | --- |
| Cn1c2c(c3c(=O)[nH]ncc31)CCCc1ccccc1-2 | 20.8 µM (inactive) | 24.5 µM (inactive) | 0.0891 µM (active) | 34.5 µM (inactive) | 31.2 µM (inactive) | 26.8 µM (inactive) | 27.8 µM (inactive) | 18.2 µM (inactive) | 20.9 µM (inactive) | 18.9 µM (inactive) | 29.2 µM (inactive) | 28.7 µM (inactive) | 25 µM (inactive) | 25.7 µM (inactive) | 11.3 µM (inactive) | 27.2 µM (inactive) | 23.6 µM (inactive) | 45.2 µM (inactive) | – |
| CN1CN(c2ccccc2)C2(CCN(Cc3nc4ccccc4s3)CC2)C1=O | 18.6 µM (inactive) | 15.7 µM (inactive) | 15.1 µM (inactive) | 17.3 µM (inactive) | 16.1 µM (inactive) | 19.6 µM (inactive) | 17.2 µM (inactive) | – | 17.8 µM (inactive) | 16.6 µM (inactive) | 20.3 µM (inactive) | 16.3 µM (inactive) | 15.7 µM (inactive) | 22.2 µM (inactive) | 13.8 µM (inactive) | 16.4 µM (inactive) | 16.7 µM (inactive) | 17.7 µM (inactive) | 17.3 µM (inactive) |
| O=C(NN=C(c1ccccc1)c1ccccc1)/C(O)=C/C(=O)c1ccc(Cl)cc1 | 29 µM (inactive) | 27.7 µM (inactive) | 35 µM (inactive) | 24.4 µM (inactive) | 38.1 µM (inactive) | 37.4 µM (inactive) | 37.3 µM (inactive) | 13.5 µM (inactive) | 69.3 µM (inactive) | 45.2 µM (inactive) | 36.9 µM (inactive) | 48.5 µM (inactive) | 28 µM (inactive) | 73.3 µM (inactive) | 43.5 µM (inactive) | 41.2 µM (inactive) | 33 µM (inactive) | > 100 µM (inactive) | – |
| O=C(ON=c1c2ccccc2ccc2ccccc12)c1cc([N+](=O)[O-])cc([N+](=O)[O-])c1 | > 100 µM (inactive) | > 100 µM (inactive) | 31.8 µM (inactive) | 25.5 µM (inactive) | 54.8 µM (inactive) | 45.4 µM (inactive) | > 100 µM (inactive) | – | > 100 µM (inactive) | > 100 µM (inactive) | > 100 µM (inactive) | > 100 µM (inactive) | 65 µM (inactive) | > 100 µM (inactive) | 21.8 µM (inactive) | > 100 µM (inactive) | 40.8 µM (inactive) | > 100 µM (inactive) | > 100 µM (inactive) |
| O=C(CNCc1ccccc1)Oc1c(Cl)c(Cl)c(Cl)c(Cl)c1Cl | 29.2 µM (inactive) | 33.1 µM (inactive) | 22.3 µM (inactive) | – | 17.3 µM (inactive) | 23.1 µM (inactive) | 93.1 µM (inactive) | 25.3 µM (inactive) | 35.2 µM (inactive) | 76.7 µM (inactive) | 37.5 µM (inactive) | 37.7 µM (inactive) | 38.5 µM (inactive) | 47 µM (inactive) | 34.8 µM (inactive) | 28.4 µM (inactive) | 33.6 µM (inactive) | 66.5 µM (inactive) | 38.5 µM (inactive) |
| NC(=S)N/N=c1\cc(C(=O)Nc2ccc([N+](=O)[O-])cc2[N+](=O)[O-])oc2ccccc12 | > 100 µM (inactive) | > 100 µM (inactive) | > 100 µM (inactive) | > 100 µM (inactive) | > 100 µM (inactive) | > 100 µM (inactive) | > 100 µM (inactive) | > 100 µM (inactive) | > 100 µM (inactive) | > 100 µM (inactive) | > 100 µM (inactive) | > 100 µM (inactive) | > 100 µM (inactive) | 99.5 µM (inactive) | – | 88.9 µM (inactive) | > 100 µM (inactive) | > 100 µM (inactive) | > 100 µM (inactive) |
| CCOP(=O)(C/C=C/Cn1nc(Br)c(=O)[nH]c1=O)OCC | > 100 µM (inactive) | > 100 µM (inactive) | > 100 µM (inactive) | > 100 µM (inactive) | > 100 µM (inactive) | > 100 µM (inactive) | > 100 µM (inactive) | > 100 µM (inactive) | > 100 µM (inactive) | > 100 µM (inactive) | > 100 µM (inactive) | > 100 µM (inactive) | > 100 µM (inactive) | – | > 100 µM (inactive) | > 100 µM (inactive) | > 100 µM (inactive) | > 100 µM (inactive) | > 100 µM (inactive) |
